Measured values from ChEMBL document CHEMBL1201862, “PubChem BioAssay data set” (2004).
Calls of active or inactive are those of the source.

Tests used:
Cytochrome P450 3A4 = Cytochrome P450 3A4 (Homo sapiens, UniProt P08684); details: Potency;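 note: confirmatory qHTS run detecting inhibitors and substrates of CYP3A4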
[1] = target: Luciferin 4-monooxygenase (Photinus pyralis, UniProt P08659); assay: firefly luciferase enzyme inhibitors, dose response, biochemical, luminescence (AID 1891)
Fatty acid synthase [2] = target: T1, Fatty acid synthase (Homo sapiens, UniProt P49327); assay: FAS thioesterase domain inhibitors, dose response, biochemical, kinetic fluorescence intensity (AID 624326); assay type: functional;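 note: rate of fluorescence rise from hydrolysis of a fluorogenic O-methyl fluorescein ester substrate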
Fatty acid synthase [3] = target: T1, Fatty acid synthase; assay: FAS thioesterase domain inhibitors, dose response, biochemical, endpoint fluorescence intensity, uHTS hits (AID 624327); assay type: functional;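 note: fluorescence from hydrolysis of an O-methyl fluorescein acyl ester substrate by the enzyme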
[4] = inhibitors of clade B AD8 Env fusion, dose response, cell-based, cherry-pick (AID 652062); assay type: functional;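 note: luciferase signal from cell-cell fusion driven by HIV-1 clade B AD8 Env; potency is for inhibitors of fusion seen as a drop in luminescence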
[5] = inhibitors of HIV Env-driven cell fusion, dose response, cherry-pick (AID 652057); assay type: functional, cell-based
[6] = ZM109 Env clade C HIV-1 fusion inhibitors, dose response, HeLa effector, CEM target cells, luciferase, cherry-pick (AID 652058); assay type: functional, cell-based
[7] = P. falciparum Dd2 growth inhibitors, dose response, SYBR Green, cherry-picked samples (AID 1159567); assay type: functional, cell-based
Paired box protein Pax-8 = Paired box protein Pax-8 (Homo sapiens, UniProt Q06710); assay: inhibitors of PAX8-driven TPO luciferase reporter, dose response, RMG-I cells, cherry-pick (AID 687027); assay type: functional, cell-based;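 note: luciferase reporter driven by Pax8 target thyroperoxidase promoter measured by SteadyGlo luminescence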
[8] = Luminescence Cell-Based Dose Confirmation HTS to Identify Inhibitors of Platelet Dense Granule Release. [Related pubchem assays: 1663 (Primary HTS), 1678 (Summary of Project)]; assay type: functional
[9] = target: T2, Calpain-2 catalytic subunit (Sus scrofa, UniProt P43367); assay: pig calpain II inhibitor potency, dose response, biochemical, fluorogenic peptide substrate (AID 1420); assay type: functional
T2 sequence (P43367 whole entry): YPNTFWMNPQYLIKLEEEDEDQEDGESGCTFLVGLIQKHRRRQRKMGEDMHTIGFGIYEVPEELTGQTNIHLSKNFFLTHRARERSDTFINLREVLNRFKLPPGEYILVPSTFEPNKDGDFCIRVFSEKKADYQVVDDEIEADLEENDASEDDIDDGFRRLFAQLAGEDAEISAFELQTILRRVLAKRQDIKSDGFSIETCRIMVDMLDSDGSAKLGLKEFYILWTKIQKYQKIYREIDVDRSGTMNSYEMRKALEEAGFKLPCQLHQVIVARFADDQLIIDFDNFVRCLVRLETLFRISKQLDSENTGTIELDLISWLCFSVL

[10] = target: T3, High affinity choline transporter 1 (Homo sapiens, UniProt Q9GZV3); assay: CHT inhibitors, dose response, cell-based, 5-point CRC, membrane potential dye (AID 504840); assay type: functional
T3 sequence (Q9GZV3 whole entry): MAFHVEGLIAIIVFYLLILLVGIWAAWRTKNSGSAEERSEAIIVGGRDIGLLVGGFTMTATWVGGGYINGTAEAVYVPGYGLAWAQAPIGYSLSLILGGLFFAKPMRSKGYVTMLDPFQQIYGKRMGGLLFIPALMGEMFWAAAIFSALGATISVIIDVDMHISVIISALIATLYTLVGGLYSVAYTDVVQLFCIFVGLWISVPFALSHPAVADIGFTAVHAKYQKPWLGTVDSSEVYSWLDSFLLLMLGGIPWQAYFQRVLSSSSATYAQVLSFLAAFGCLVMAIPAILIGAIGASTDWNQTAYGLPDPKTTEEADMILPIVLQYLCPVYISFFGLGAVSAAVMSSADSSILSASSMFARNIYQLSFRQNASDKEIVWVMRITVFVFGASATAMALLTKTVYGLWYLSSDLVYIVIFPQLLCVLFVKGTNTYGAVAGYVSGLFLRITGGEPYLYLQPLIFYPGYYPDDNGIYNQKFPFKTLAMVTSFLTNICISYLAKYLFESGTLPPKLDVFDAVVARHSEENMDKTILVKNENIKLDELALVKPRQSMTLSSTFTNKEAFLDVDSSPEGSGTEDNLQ

[11] = inhibitors of intracellular T. cruzi replication, confirmation, NIH3T3 host cells, beta-gal luminescence (AID 2044); assay type: functional, cell-based;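 note: intracellular parasites grown in NIH/3T3 mouse fibroblasts as host cells; luminescent beta-galactosidase reporter signal from transgenic T. cruzi replicating inside host cells; inhibitors lower the luminescence signal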
Protein skinhead-1 = target: T4, Protein skinhead-1 (Caenorhabditis elegans, UniProt P34707); assay type: functional
T4 sequence (P34707 whole entry): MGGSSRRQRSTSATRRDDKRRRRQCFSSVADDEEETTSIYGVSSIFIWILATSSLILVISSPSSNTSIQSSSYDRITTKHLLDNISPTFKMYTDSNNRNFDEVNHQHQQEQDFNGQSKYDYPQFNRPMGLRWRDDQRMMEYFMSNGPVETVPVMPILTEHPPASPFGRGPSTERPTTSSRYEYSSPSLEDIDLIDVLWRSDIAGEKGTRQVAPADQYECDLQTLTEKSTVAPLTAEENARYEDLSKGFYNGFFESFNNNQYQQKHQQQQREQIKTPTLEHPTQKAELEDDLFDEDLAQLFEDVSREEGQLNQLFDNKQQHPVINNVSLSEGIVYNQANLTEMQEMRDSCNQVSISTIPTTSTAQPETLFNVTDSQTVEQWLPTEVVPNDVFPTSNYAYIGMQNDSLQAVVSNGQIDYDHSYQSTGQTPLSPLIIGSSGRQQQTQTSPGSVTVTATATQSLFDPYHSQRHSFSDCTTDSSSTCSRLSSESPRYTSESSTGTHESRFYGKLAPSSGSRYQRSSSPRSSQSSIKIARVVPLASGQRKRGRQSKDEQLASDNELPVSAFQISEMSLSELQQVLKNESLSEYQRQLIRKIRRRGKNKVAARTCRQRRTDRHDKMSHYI

[12] = cytotoxicity toward NIH3T3 fibroblasts, dose response, counter-screen, cell-based, ATP luminescence, mouse fibroblasts (AID 2010); assay type: functional;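 note: cells exposed to compound for about 90 hours before reading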

T1 sequence (P49327 whole entry, the tested form may be a part): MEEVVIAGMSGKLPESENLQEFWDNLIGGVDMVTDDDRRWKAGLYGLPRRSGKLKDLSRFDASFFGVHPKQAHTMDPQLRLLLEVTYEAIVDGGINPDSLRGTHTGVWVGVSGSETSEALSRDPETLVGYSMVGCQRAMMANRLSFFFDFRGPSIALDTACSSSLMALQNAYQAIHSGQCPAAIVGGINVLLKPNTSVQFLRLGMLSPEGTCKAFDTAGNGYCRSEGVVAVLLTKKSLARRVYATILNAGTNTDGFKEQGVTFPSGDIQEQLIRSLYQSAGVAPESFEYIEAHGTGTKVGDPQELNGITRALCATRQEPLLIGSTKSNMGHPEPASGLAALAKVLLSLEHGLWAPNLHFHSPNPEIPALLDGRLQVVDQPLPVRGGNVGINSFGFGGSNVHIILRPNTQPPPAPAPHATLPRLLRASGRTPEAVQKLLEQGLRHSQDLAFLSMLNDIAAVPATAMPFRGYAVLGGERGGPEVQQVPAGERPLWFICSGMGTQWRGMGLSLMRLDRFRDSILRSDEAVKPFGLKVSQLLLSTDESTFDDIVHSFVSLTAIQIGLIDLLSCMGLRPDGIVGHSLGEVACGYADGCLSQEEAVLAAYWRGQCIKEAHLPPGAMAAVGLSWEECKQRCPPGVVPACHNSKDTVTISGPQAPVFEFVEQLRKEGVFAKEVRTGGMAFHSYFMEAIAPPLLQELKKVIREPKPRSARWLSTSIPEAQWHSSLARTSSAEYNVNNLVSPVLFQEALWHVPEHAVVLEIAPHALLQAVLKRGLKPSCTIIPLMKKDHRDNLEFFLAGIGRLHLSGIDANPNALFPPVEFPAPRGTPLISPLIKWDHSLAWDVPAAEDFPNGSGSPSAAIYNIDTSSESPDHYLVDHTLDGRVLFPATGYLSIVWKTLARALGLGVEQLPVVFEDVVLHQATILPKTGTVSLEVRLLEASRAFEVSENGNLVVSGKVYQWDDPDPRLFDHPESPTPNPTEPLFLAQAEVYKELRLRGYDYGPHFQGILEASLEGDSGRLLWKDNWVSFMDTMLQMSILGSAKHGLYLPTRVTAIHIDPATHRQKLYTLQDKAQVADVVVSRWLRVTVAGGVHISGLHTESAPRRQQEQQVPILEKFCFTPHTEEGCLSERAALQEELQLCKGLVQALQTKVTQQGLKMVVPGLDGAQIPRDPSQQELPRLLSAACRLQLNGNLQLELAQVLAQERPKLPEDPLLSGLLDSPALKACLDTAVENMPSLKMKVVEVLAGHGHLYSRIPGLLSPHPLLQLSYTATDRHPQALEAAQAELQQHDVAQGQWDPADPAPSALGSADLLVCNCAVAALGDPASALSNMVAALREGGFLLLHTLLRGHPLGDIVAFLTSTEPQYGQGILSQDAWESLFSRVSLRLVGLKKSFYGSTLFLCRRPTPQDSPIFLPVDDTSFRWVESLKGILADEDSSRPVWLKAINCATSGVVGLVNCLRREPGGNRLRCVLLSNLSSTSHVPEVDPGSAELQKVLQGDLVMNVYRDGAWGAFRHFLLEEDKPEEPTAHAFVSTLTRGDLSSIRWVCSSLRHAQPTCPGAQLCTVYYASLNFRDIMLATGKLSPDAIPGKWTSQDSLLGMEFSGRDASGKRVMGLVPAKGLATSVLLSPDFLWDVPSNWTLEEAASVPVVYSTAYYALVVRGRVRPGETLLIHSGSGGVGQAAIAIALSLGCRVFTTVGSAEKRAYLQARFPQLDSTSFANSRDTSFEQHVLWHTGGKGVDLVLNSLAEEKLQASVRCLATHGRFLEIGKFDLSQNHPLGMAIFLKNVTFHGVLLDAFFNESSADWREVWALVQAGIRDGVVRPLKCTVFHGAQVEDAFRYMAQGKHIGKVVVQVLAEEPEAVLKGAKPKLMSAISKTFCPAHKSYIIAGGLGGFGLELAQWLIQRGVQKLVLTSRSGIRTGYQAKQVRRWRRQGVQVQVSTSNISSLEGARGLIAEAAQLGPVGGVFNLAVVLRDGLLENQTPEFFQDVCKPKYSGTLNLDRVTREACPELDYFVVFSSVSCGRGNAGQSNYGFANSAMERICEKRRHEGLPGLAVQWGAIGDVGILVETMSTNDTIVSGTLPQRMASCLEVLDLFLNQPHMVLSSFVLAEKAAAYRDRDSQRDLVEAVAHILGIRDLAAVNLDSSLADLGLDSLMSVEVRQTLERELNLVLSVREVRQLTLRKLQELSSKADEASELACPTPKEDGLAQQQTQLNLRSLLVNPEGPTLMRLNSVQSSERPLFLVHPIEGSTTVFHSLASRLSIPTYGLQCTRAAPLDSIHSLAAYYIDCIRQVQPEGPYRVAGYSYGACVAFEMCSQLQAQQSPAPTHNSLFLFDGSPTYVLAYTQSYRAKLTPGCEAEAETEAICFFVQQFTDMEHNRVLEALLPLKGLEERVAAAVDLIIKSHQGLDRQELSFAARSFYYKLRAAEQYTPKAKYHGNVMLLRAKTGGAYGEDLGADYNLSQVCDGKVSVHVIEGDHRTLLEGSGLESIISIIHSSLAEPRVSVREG
Chain of Cytochrome P450 3A4 (P08684 whole entry): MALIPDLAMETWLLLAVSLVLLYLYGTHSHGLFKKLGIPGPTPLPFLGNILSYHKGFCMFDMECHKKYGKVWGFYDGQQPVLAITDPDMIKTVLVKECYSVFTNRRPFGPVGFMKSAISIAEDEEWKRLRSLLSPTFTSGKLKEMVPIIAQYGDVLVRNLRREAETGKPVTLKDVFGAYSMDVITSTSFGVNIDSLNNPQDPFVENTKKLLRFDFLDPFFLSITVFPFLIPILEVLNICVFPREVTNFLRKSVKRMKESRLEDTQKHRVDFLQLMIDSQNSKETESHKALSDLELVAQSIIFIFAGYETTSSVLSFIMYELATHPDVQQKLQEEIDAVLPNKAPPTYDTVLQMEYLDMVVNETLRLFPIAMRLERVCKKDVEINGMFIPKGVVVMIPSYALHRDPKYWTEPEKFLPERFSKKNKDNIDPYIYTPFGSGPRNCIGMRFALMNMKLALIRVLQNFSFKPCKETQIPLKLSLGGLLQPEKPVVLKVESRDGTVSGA
Chain of Luciferin 4-monooxygenase (P08659 whole entry, the tested form may be a part): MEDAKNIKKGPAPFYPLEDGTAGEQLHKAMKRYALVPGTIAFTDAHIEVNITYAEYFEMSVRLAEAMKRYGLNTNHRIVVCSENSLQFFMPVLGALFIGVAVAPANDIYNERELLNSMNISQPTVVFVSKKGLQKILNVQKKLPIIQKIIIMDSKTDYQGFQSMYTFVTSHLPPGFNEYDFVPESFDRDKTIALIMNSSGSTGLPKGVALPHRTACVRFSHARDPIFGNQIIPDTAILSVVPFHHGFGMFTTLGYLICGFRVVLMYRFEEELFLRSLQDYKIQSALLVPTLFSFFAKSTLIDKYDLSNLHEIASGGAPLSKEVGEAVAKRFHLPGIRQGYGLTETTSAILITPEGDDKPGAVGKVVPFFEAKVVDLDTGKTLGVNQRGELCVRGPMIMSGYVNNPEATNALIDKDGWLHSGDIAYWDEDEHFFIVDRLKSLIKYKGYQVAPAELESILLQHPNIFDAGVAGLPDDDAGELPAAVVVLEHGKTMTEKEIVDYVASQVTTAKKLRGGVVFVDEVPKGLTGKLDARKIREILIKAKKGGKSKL
Chain of Paired box protein Pax-8 (Q06710 whole entry): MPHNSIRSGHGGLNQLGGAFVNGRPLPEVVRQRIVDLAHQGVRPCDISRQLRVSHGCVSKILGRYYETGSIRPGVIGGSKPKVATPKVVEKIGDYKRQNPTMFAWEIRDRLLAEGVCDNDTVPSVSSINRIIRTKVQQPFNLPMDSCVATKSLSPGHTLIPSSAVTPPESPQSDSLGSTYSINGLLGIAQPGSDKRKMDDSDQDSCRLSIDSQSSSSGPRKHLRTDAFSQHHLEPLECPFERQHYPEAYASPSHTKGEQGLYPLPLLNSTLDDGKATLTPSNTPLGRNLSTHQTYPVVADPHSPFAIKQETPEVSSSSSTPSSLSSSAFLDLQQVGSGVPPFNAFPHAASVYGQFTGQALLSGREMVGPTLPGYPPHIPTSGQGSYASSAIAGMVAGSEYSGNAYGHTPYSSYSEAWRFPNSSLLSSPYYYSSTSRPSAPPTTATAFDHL

With COc1ccc2c(c1)OCc1c-2oc2cc(OC)ccc12 [DEHYDROVARIABILIN] the AC50 (Cytochrome P450 3A4) was 39.8 µM (inconclusive).

For Cc1cccc(OCC(=O)Nc2nnc[nH]2)c1C, the EC50 [1] was > 112 µM (not active).

For O=C(Nc1c(C(=O)N2CCOCC2)cnn1-c1ccccc1)c1ccc([N+](=O)[O-])cc1, the IC50 (Fatty acid synthase [2]) was 9.36 µM (active) and the IC50 (Fatty acid synthase [3]) was 11.7 µM (active).

For CC(C)(C)OC(=O)N1CCc2onc(-c3ccc(Br)cc3)c2C1=O, the AC50 [4] was 59.9 µM (active) and the AC50 [5] was 64.9 µM (active).

In the case of C[C@H](CO)N1C[C@H](C)[C@H](CN(C)S(=O)(=O)c2cccs2)Oc2ccc(NC(=O)Nc3cccc4ccccc34)cc2CC1=O, the AC50 [4] is reported as < 0.26 µM (active), the AC50 [6] is reported as < 0.26 µM (active) and the AC50 [5] is reported as < 0.26 µM (active).

With COc1cc2c(cc1OC)C1Cc3ccc(OC)c(OC)c3CN1CC2 (centres undefined) the AC50 (Cytochrome P450 3A4) was 31.6 µM (inconclusive).

In the case of C[C@H](CO)N1C[C@H](C)[C@H](CN(C)C(=O)C2CC2)Oc2cc(C#Cc3ccccc3)ccc2S1(=O)=O, the AC50 [7] is reported as 4.27 µM (active).

With Cc1ccc(S(=O)(=O)Nc2cccc(-c3ccc(N4CCCCCC4)nn3)c2)c(C)c1 the IC50 (Fatty acid synthase [2]) was 6.9 µM (active) and the IC50 (Fatty acid synthase [3]) was 5.11 µM (active).

For CCC(C)NC(=O)CSc1nc2c(sc(=S)n2Cc2ccco2)c(=O)n1-c1ccccc1 (centres undefined), the IC50 (Fatty acid synthase [2]) was 60.6 µM (inactive) and the IC50 (Fatty acid synthase [3]) was 30 µM (inactive).

With COc1ccc(C(=O)N/C(=C\c2cn(S(=O)(=O)N(C)C)c3ccccc23)C(=O)N2CCOCC2)cc1 the IC50 (Fatty acid synthase [2]) was 4.26 µM (active) and the IC50 (Fatty acid synthase [3]) was 1.83 µM (active).

In the case of C[C@H](CO)N1C[C@H](C)[C@@H](CN(C)Cc2ccc(C(F)(F)F)cc2)Oc2ccc(NS(=O)(=O)c3ccc(F)cc3)cc2CC1=O, the AC50 (Paired box protein Pax-8) is reported as 11.9 µM (active).

With O=C(/C=C/c1cccc([N+](=O)[O-])c1)N1CCN(S(=O)(=O)c2cccs2)CC1 the IC50 (Fatty acid synthase [2]) was 2.31 µM (active) and the IC50 (Fatty acid synthase [3]) was 2.69 µM (active).

For CCOC(=O)N1CCN(CC(=O)N2CCC(C(N)=O)CC2)CC1, the EC50 [8] was > 112 µM (not active) and the EC50 [1] was > 112 µM (not active).

For CCOC(=O)N1CCN(Cc2nc3c(c(=O)n(C)c(=O)n3C)n2Cc2cccc3ccccc23)CC1, the EC50 [8] was > 112 µM (not active) and the EC50 [1] was > 112 µM (not active).

For C[C@@H]1CCCCO[C@H](CN(C)S(=O)(=O)c2ccc(Cl)cc2)[C@@H](C)CN([C@@H](C)CO)C(=O)c2cc(NC(=O)Nc3ccc(C(F)(F)F)cc3)ccc2O1, the AC50 (Paired box protein Pax-8) was 2.87 µM (active).

In the case of CCCn1c(C)nc2c(NCc3ccccc3)nc(C)nc21, the AC50 (Cytochrome P450 3A4) is reported as 15.8 µM (inconclusive).

With c1cc2c3c(c1)ccc1cccc(c13)C2 the AC50 (Cytochrome P450 3A4) was 25.1 µM (inconclusive).

In the case of COc1ccc(NC(=O)N(C)C[C@H]2OCc3ccccc3-c3c(n(C)c4ccccc34)C(=O)N([C@@H](C)CO)C[C@H]2C)c(OC)c1, the AC50 [7] is reported as 4.92 µM (active).

For COCCn1cc(C(=O)N2CCC(C)CC2)c2c3ccccc3n(C)c2c1=O, the EC50 [8] was > 112 µM (not active) and the EC50 [1] was > 112 µM (not active).

In the case of Cn1cc(C2=C(c3cn(CCCSC(=N)N)c4ccccc34)C(=O)NC2=O)c2ccccc21, the AC50 (Cytochrome P450 3A4) is reported as 6.31 µM (inconclusive).

With COC(=O)CCC(C)C1CCC2C3C(O)C[C@@H]4CC(O)CC[C@@]4(C)C3CC(O)[C@]12C (some centres undefined) the AC50 (Cytochrome P450 3A4) was 20 µM (inconclusive).

In the case of CCc1cccc(C)c1NC(=O)COC(=O)c1cc([N+](=O)[O-])ccc1N1CCOCC1, the IC50 (Fatty acid synthase [2]) is reported as 10.7 µM (active) and the IC50 (Fatty acid synthase [3]) is reported as 10.5 µM (active).

For C[C@@H]1CN([C@H](C)CO)S(=O)(=O)c2ccc(C#Cc3ccccc3)cc2O[C@H]1CN(C)S(=O)(=O)c1cn(C)cn1, the AC50 [7] was 3.7 µM (active).

With Cc1nn(Cc2ccc(Cl)cc2Cl)c(C)c1NC(=O)c1nn(C)cc1Cl the IC50 [9] was 0.917 µM (not active).

In the case of CCCCCc1nc2sc3c(c2c(=O)n1NC(=O)c1ccc([N+](=O)[O-])cc1)CC(C)(C)OC3, the IC50 [10] is reported as 12.6 µM (active), the IC50 (Fatty acid synthase [2]) is reported as 5.75 µM (active) and the IC50 (Fatty acid synthase [3]) is reported as 5.09 µM (active).

For COc1cccc(S(=O)(=O)N2CCC3(CC2)CN[C@@H](CO)c2[nH]c4cc(OC)ccc4c23)c1, the AC50 [7] was 5.39 µM (active).

In the case of CC(=O)N1CC=CC1(CC(C)C)C(=O)NCc1ccccn1 (centres undefined), the AC50 (Cytochrome P450 3A4) is reported as 20 µM (inconclusive).

In the case of COC(=O)[C@@H]1C[C@@]2(O)[C@H](O)[C@H](O)[C@H](O)C[C@H]2N1Cc1cccnc1, the AC50 (Cytochrome P450 3A4) is reported as 31.6 µM (inconclusive).

In the case of CCOC(=O)NCCc1ccc(OC)cc1, the EC50 [8] is reported as > 112 µM (not active) and the EC50 [1] is reported as > 112 µM (not active).

In the case of CC(=O)[C@@H]1[C@H]2[C@H](C(=O)[C@H]3OC[C@@H]2O3)[C@H]2C=Cc3ccccc3N21, the AC50 (Cytochrome P450 3A4) is reported as 25.1 µM (inconclusive).

In the case of CCOC(=O)N1CCC(Nc2ccc(N3C(=O)C4CCCCC4C3=O)cc2[N+](=O)[O-])CC1 (centres undefined), the IC50 [9] is reported as 7.24 µM (active).

With C[C@H](CO)N1C[C@H](C)[C@@H](CN(C)Cc2ccc(Oc3ccccc3)cc2)Oc2ccc(NS(=O)(=O)c3cn(C)cn3)cc2CC1=O the AC50 [7] was 9.82 µM (active).

With CC1=C(C(=O)c2ccccc2)C(c2cn(-c3ccccc3)nc2-c2ccc(Cl)cc2)NC(S)=N1 (centres undefined) the EC50 [11] was 2.33 µM (active), the IC50 (Protein skinhead-1) was > 100 µM (inactive) and the EC50 [12] was > 30 µM (not active).

In the case of CCOC(=O)[C@@H]1[C@H]2COc3ccc(Br)cc3[C@@H]2N2C(=O)N(c3cccc(Cl)c3)C(=O)[C@@]12C, the IC50 (Fatty acid synthase [2]) is reported as 11.8 µM (active) and the IC50 (Fatty acid synthase [3]) is reported as 22.9 µM (inactive).

In the case of COc1ccccc1C1C(C(=O)NCc2ccccc2)=C(C)Nc2ncnn21 (centres undefined), the IC50 (Protein skinhead-1) is reported as > 100 µM (inactive).

In the case of Cc1cccc(OCC(=O)Nc2nc[nH]n2)c1C, the EC50 [8] is reported as > 112 µM (not active).

For COC(=O)c1ccc(C23CC4(C2)[C@H](CN(CC2CCCCC2)[C@@H]4c2ccccc2)C3c2ccc(C(F)(F)F)cc2)cc1 (some centres undefined), the AC50 (Cytochrome P450 3A4) was 15.8 µM (inconclusive).

With COc1ccc(CN2C[C@H](C)[C@H](OC)CN(C)C(=O)c3cc(NC(=O)c4nc5ccccc5s4)ccc3OC[C@@H]2C)cc1 the AC50 [7] was 5.29 µM (active).

In the case of Cc1ccc([N+](=O)[O-])cc1NC(=O)C[n+]1ccccc1, the IC50 [9] is reported as > 50 µM (not active).

For Cc1nn(-c2ccc(Cl)c(Cl)c2Cl)c(=O)c2ccccc12, the IC50 [9] was 22.8 µM (not active).

In the case of CC(=O)NC1(c2ccccc2)CCN(C(=O)N2CCOCC2)CC1, the IC50 [9] is reported as 7.15 µM (not active).
